In the NIST ThermoML archive (doi:10.1016/j.jct.2016.03.034):

Assay: xn = mol fraction of the nth substance listed
Conditions: 100 kPa, Liquid; for viscosity: Capillary tube (Ostwald / Ubbelohde) method; for mass density: Vibrating tube method

O=C1CCCO1 [γ-butyrolactone] + CCCCCC[n+]1ccn(C)c1.O=S(=O)([N-]S(=O)(=O)C(F)(F)F)C(F)(F)F
Conditions | mass density [kg/m3] | viscosity [mPa·s]
293.15 K, x2 = 0 | 1129.49 | 1.86
293.15 K, x2 = 0.0507 | 1176 | 2.63
293.15 K, x2 = 0.0999 | 1209.89 | 3.68
293.15 K, x2 = 0.1544 | 1238.99 | 5.32
293.15 K, x2 = 0.1999 | 1258.54 | 6.49
293.15 K, x2 = 0.3004 | 1291.11 | 10.57
293.15 K, x2 = 0.404 | 1314.91 | –
293.15 K, x2 = 0.5044 | 1332.2 | 23.96
293.15 K, x2 = 0.596 | 1344.4 | –
293.15 K, x2 = 0.7027 | 1355.85 | 44.32
293.15 K, x2 = 0.8182 | 1365.51 | –
293.15 K, x2 = 0.8924 | 1370.62 | 70.24
298.15 K, x2 = 0 | 1124.59 | 1.71
298.15 K, x2 = 0.0507 | 1171.09 | 2.43
298.15 K, x2 = 0.0999 | 1204.99 | 3.32
298.15 K, x2 = 0.1544 | 1234.06 | 4.67
298.15 K, x2 = 0.1999 | 1253.61 | 5.73
298.15 K, x2 = 0.3004 | 1286.27 | 9.16
298.15 K, x2 = 0.404 | 1310.08 | –
298.15 K, x2 = 0.5044 | 1327.28 | 19.96
298.15 K, x2 = 0.596 | 1339.47 | –
298.15 K, x2 = 0.7027 | 1350.79 | 35.8
298.15 K, x2 = 0.8182 | 1360.52 | –
298.15 K, x2 = 0.8924 | 1365.62 | 55.4
303.15 K, x2 = 0 | 1119.68 | 1.58
303.15 K, x2 = 0.0507 | 1166.32 | 2.18
303.15 K, x2 = 0.0999 | 1200.4 | 3
303.15 K, x2 = 0.1544 | 1229.53 | 4.08
303.15 K, x2 = 0.1999 | 1249.21 | 5.07
303.15 K, x2 = 0.3004 | 1281.91 | 7.91
303.15 K, x2 = 0.404 | 1305.79 | –
303.15 K, x2 = 0.5044 | 1323.05 | 16.88
303.15 K, x2 = 0.596 | 1335.25 | –
303.15 K, x2 = 0.7027 | 1346.64 | 29.15
303.15 K, x2 = 0.8182 | 1356.39 | –
303.15 K, x2 = 0.8924 | 1361.5 | 44.29
308.15 K, x2 = 0 | 1114.78 | 1.47
308.15 K, x2 = 0.0507 | 1161.53 | 1.97
308.15 K, x2 = 0.0999 | 1195.65 | 2.74
308.15 K, x2 = 0.1544 | 1224.8 | 3.69
308.15 K, x2 = 0.1999 | 1244.56 | 4.55
308.15 K, x2 = 0.3004 | 1277.26 | 7
308.15 K, x2 = 0.404 | 1301.16 | –
308.15 K, x2 = 0.5044 | 1318.46 | 14.47
308.15 K, x2 = 0.596 | 1330.67 | –
308.15 K, x2 = 0.7027 | 1342.09 | 25.57
308.15 K, x2 = 0.8182 | 1351.83 | –
308.15 K, x2 = 0.8924 | 1356.94 | 36.71
313.15 K, x2 = 0 | 1109.87 | 1.37
313.15 K, x2 = 0.0507 | 1156.54 | 1.84
313.15 K, x2 = 0.0999 | 1190.58 | 2.52
313.15 K, x2 = 0.1544 | 1219.69 | 3.34
313.15 K, x2 = 0.1999 | 1239.41 | 4.11
313.15 K, x2 = 0.3004 | 1272 | 6.23
313.15 K, x2 = 0.404 | 1295.78 | –
313.15 K, x2 = 0.5044 | 1313.05 | 12.29
313.15 K, x2 = 0.596 | 1325.23 | –
313.15 K, x2 = 0.7027 | 1336.62 | 20.49
313.15 K, x2 = 0.8182 | 1346.3 | –
313.15 K, x2 = 0.8924 | 1351.37 | 30.2
318.15 K, x2 = 0 | 1104.96 | 1.28
318.15 K, x2 = 0.0507 | 1151.65 | 1.7
318.15 K, x2 = 0.0999 | 1185.71 | 2.31
318.15 K, x2 = 0.1544 | 1214.89 | 3.03
318.15 K, x2 = 0.1999 | 1234.59 | 3.7
318.15 K, x2 = 0.3004 | 1267.16 | 5.72
318.15 K, x2 = 0.404 | 1290.94 | –
318.15 K, x2 = 0.5044 | 1308.19 | 10.74
318.15 K, x2 = 0.596 | 1320.36 | –
318.15 K, x2 = 0.7027 | 1331.75 | 17.5
318.15 K, x2 = 0.8182 | 1341.42 | –
318.15 K, x2 = 0.8924 | 1346.5 | 25.41
323.15 K, x2 = 0 | 1100.05 | 1.2
323.15 K, x2 = 0.0507 | 1147.03 | 1.58
323.15 K, x2 = 0.0999 | 1181.36 | 2.14
323.15 K, x2 = 0.1544 | 1210.78 | 2.69
323.15 K, x2 = 0.1999 | 1230.51 | 3.38
323.15 K, x2 = 0.3004 | 1263.32 | 5.21
323.15 K, x2 = 0.404 | 1287.31 | –
323.15 K, x2 = 0.5044 | 1304.67 | 9.36
323.15 K, x2 = 0.596 | 1316.95 | –
323.15 K, x2 = 0.7027 | 1328.43 | 15
323.15 K, x2 = 0.8182 | 1338.19 | –
323.15 K, x2 = 0.8924 | 1343.3 | 21.39
